# Experimental data reported in patent US20140328795A1, “VIRUCIDAL SMALL MOLECULE AND USES THEREOF” (The Texas A&M University System, priority 2012, published 2014).
# “Also recorded” adds a separate entry of the source. Where two headings read alike, the source gives them in different places.
# Assays:
# [1] = test system: freshly activated human PBMCs
# primary HIV-1 isolates = assay: microbe, parasite or virus in culture; assay type: cell-based; conditions: Human immunodeficiency virus 1, TZM-bl
# HCVcc [2] = test system: HCVcc; set-up: species or system HCV
# HCVcc [3] = assay type: cell-based, HCV
# VSV-Gpp [4] = assay type: physicochemical; conditions: pH 7
# HIV-1 (R5 JR-CSF) = assay: Antiviral effect of PD before, during and after HIV-1 exposure (TZM-bl); assay type: cell-based
# [5] = test system: commensal Lactobacillus species; assay: Lactobacillus toxicity testing, all strains together; assay type: cell-based
# Experimental: Reference strains of L. crispatus and L. jensenii were obtained from the ATCC (Manassas, Va.) and cultured on Columbia blood agar plates at 35° C. in air enriched with 6% CO2. Bacterial suspensions were prepared in saline or ACES buffer to a density of 2 McFarland units (˜2×10^8 bacteria/mL), and exposed to PD (300 μM) or DMSO (10%) for 30 minutes at 37° C. After incubation, the cells were serially diluted in ACES buffer, pH 7.0 (Sigma-Aldrich, St. Louis, Mo.) and plated on blood agar plates to quantify colony forming unit per mL (CFU/mL)
# Different bacterial strains were incubated with 300 μM PD or solvent DMSO-containing control media at 37° C. for 30 min and plated on blood agar plates to estimate their corresponding colony forming units per ml (CFU/ml). Less than 1 log difference between control and test CFU is considered non-toxic17.
# VSV-Gpp [6] = assay type: physicochemical
# [7] = test system: primary CD4+ T-lymphocytes, macrophages and dendritic cells; assay: Primary cells toxicity testing (LDH release); conditions: up to 14 days
# [8] = test system: HIV-1 (X4 NL4.3) particles; conditions: 10 μM PD, 30 min, 37° C.; 20-70% sucrose gradient
# DC-associated HIV-1 = assay type: cell-based; conditions: 10 μM PD added to DC 2 h after virus, pseudotyped NL4.3ΔEnv-eGFP/gp160 Env virus, Jurkat T cells, 3 days
# HSV-2 (333) = assay type: cell-based; conditions: 2 μM and 0.2 μM PD
# Experimental: (§1) FIGS. 16A-16B depict effectiveness of PD against HSV. PD blocks HSV infection. Vero cells were seeded in a 24-well plate and infected with HSV-1 (Syn 17) or HSV-2 (333) (FIG. 16A). PD (200 nM) or control DMSO (0.01%) was added immediately to the target cells after viral inoculation. Two days later, the cells were harvested, stained with antibody against HSV glycoprotein gD and analyzed by flow cytometry. Error bars represent standard deviation of triplicate samples. Results are representative of two independent experiments. PD Destabilizes HSV particles (FIG. 16B). Concentrated HSV (˜20 μg/mL) was incubated with DMSO (0.01%) or PD (200 nM) for 30 min at 37° C. and the mixture was immediately loaded over a 20-70% sucrose density gradient. The amount of HSV glycoprotein gpB in each fraction was analyzed by ELISA. The sucrose gradient density of each fraction was determined by measuring the refractive index. Results are representative of 2 independent experiments. Error bars represent the standard deviation of triplicate samples.
# (§2) Vero cells (2×10^5 cells/well) were seeded in a 24 well plate. The next day, these cells were infected with increasing titers (MOI range 0.0001-1) of HSV-1 (Syn 17) or HSV-2 (333) in the presence of PD (2 μM and 200 nM) or control DMSO (0.01%) prepared in DMEM in the absence of serum. Two days post-inoculation, cells were harvested, fixed with 5% paraformaldehyde (PFA) in PBS, stained with antibodies against HSV glycoprotein gD (Novus biological, Littleton, Colo.) and analyzed by flow cytometry.
# (§3) Applicants investigated the ability of PD to inactivate HSV-1 and -2. Vero cells were infected with HSV-1 and HSV-2 in the presence of PD (2 μM and 0.2 μM) or DMSO (0.01%). These concentrations were selected based on their closeness to the in vitro IC50 of PD against HIV-1. Infection was quantified by the cell surface expression of HSV gD. […] Similar results were obtained for both concentrations and the data from the lowest concentration is presented.
# HSV-1 (Syn 17) = assay type: cell-based; conditions: 2 μM and 0.2 μM PD
# Experimental: as §1, §2, §3
compound,measurement,setting,value
"N=C1Sc2ccccc2C2=NCCCN12 [PD, PD 404,182]",reduction in cell viability,[1],48%
same,IC90,"primary HIV-1 isolates; HIV-1 92HT599 (clade B, X4), PD in DMEM with 10% fetal bovine serum, IC90 per footnote",5.8 µM
same,IC90,"primary HIV-1 isolates; HIV-1 92HT599 (clade B, X4), PD in cervical fluids, IC90 per footnote",6.4 µM
same,IC90,"primary HIV-1 isolates; HIV-1 92HT599 (clade B, X4), PD in seminal plasma, IC90 per footnote",6.31 µM
same,IC90,"primary HIV-1 isolates; HIV-1 92RW021 (clade A, R5), PD in DMEM with 10% fetal bovine serum, IC90 per footnote",3.8 µM
same,IC90,"primary HIV-1 isolates; HIV-1 92RW021 (clade A, R5), PD in cervical fluids, IC90 per footnote",4.4 µM
same,IC90,"primary HIV-1 isolates; HIV-1 92TH003 (clade E, R5), PD in DMEM with 10% fetal bovine serum, IC90 per footnote",8.6 µM
same,IC90,"primary HIV-1 isolates; HIV-1 92TH003 (clade E, R5), PD in cervical fluids, IC90 per footnote",7.8 µM
same,IC90,"primary HIV-1 isolates; HIV-1 92TH003 (clade E, R5), PD in seminal plasma, IC90 per footnote",6.73 µM
same,IC90,"primary HIV-1 isolates; HIV-1 92TH029 (clade B, R5), PD in DMEM with 10% fetal bovine serum, IC90 per footnote",2.8 µM
same,IC90,"primary HIV-1 isolates; HIV-1 92TH029 (clade B, R5), PD in cervical fluids, IC90 per footnote",3.3 µM
same,IC90,"primary HIV-1 isolates; HIV-1 92TH029 (clade B, R5), PD in seminal plasma, IC90 per footnote",2.95 µM
same,IC50,"primary HIV-1 isolates; HIV-1 92UG024 (clade D, X4), PD in DMEM with 10% fetal bovine serum",0.33 µM
same,IC90,"primary HIV-1 isolates; HIV-1 92UG024 (clade D, X4), PD in DMEM with 10% fetal bovine serum, IC90 per footnote",1.4 µM
same,IC90,"primary HIV-1 isolates; HIV-1 92UG024 (clade D, X4), PD in cervical fluids, IC90 per footnote",1.8 µM
same,IC90,"primary HIV-1 isolates; HIV-1 92UG024 (clade D, X4), PD in seminal plasma, IC90 per footnote",1.68 µM
same,IC90,"primary HIV-1 isolates; HIV-1 92UG029 (clade A, X4), PD in DMEM with 10% fetal bovine serum, IC90 per footnote",4.4 µM
same,IC90,"primary HIV-1 isolates; HIV-1 92UG029 (clade A, X4), PD in cervical fluids, IC90 per footnote",5.3 µM
same,IC90,"primary HIV-1 isolates; HIV-1 92UQ085 (clade D, R5), PD in DMEM with 10% fetal bovine serum, IC90 per footnote",5.3 µM
same,IC90,"primary HIV-1 isolates; HIV-1 92UQ085 (clade D, R5), PD in cervical fluids, IC90 per footnote",6.7 µM
same,IC90,"primary HIV-1 isolates; HIV-1 92UQ085 (clade D, R5), PD in seminal plasma, IC90 per footnote",6.67 µM
same,IC90,"primary HIV-1 isolates; HIV-1 93BR020 (clade F, X4), PD in DMEM with 10% fetal bovine serum, IC90 per footnote",6.8 µM
same,IC90,"primary HIV-1 isolates; HIV-1 93BR020 (clade F, X4), PD in cervical fluids, IC90 per footnote",7.6 µM
same,IC90,"primary HIV-1 isolates; HIV-1 93BR020 (clade F, X4), PD in seminal plasma, IC90 per footnote",7.19 µM
same,IC90,"primary HIV-1 isolates; HIV-1 93BR028 (clade F, R5), PD in DMEM with 10% fetal bovine serum, IC90 per footnote",3.6 µM
same,IC90,"primary HIV-1 isolates; HIV-1 93BR028 (clade F, R5), PD in cervical fluids, IC90 per footnote",4.6 µM
same,IC90,"primary HIV-1 isolates; HIV-1 93BR028 (clade F, R5), PD in seminal plasma, IC90 per footnote",3.72 µM
same,IC90,"primary HIV-1 isolates; HIV-1 93IN101 (clade C, R5), PD in DMEM with 10% fetal bovine serum, IC90 per footnote",5.1 µM
same,IC90,"primary HIV-1 isolates; HIV-1 93IN101 (clade C, R5), PD in cervical fluids, IC90 per footnote",5.6 µM
same,IC90,"primary HIV-1 isolates; HIV-1 93IN101 (clade C, R5), PD in seminal plasma, IC90 per footnote",5.38 µM
same,IC90,"primary HIV-1 isolates; HIV-1 93TH083 (clade E, X4), PD in DMEM with 10% fetal bovine serum, IC90 per footnote",6.3 µM
same,IC90,"primary HIV-1 isolates; HIV-1 93TH083 (clade E, X4), PD in cervical fluids, IC90 per footnote",6.4 µM
same,IC90,"primary HIV-1 isolates; HIV-1 93TH083 (clade E, X4), PD in seminal plasma, IC90 per footnote",6.66 µM
same,IC90,"primary HIV-1 isolates; HIV-1 98IN017 (clade C, X4), PD in cervical fluids, IC90 per footnote",2.4 µM
same,IC90,"primary HIV-1 isolates; HIV-1 98IN017 (clade C, X4), PD in seminal plasma, IC90 per footnote",2.09 µM
same,IC90,"primary HIV-1 isolates; HIV-1 Jv1063 (clade G, R5), PD in DMEM with 10% fetal bovine serum, IC90 per footnote",3.8 µM
same,IC50,"primary HIV-1 isolates; HIV-1 RU132 (clade G, R5), PD in DMEM with 10% fetal bovine serum",0.8 µM
same,IC90,"primary HIV-1 isolates; HIV-1 RU132 (clade G, R5), PD in DMEM with 10% fetal bovine serum, IC90 per footnote",3.1 µM
same,IC90,"primary HIV-1 isolates; HIV-1 RU132 (clade G, R5), PD in cervical fluids, IC90 per footnote",3.8 µM
same,IC90,"primary HIV-1 isolates; HIV-1 RU132 (clade G, R5), PD in seminal plasma, IC90 per footnote",3.26 µM
same,IC50,primary HIV-1 isolates; broad range of primary HIV-1 isolates as well as HIV-2,~1 µM
same,IC50,"primary HIV-1 isolates; read-out: IC50, range over the tested subtypes of HIV-1, PD in DMEM, TZM-bl",0.33 to 1.8 µM
same,IC50,"primary HIV-1 isolates; read-out: IC50, range over the tested subtypes of HIV-1, PD in cervical fluid, TZM-bl",0.61 to 2.3 µM
same,IC90,"primary HIV-1 isolates; read-out: IC90, range over the tested subtypes of HIV-1, PD in DMEM, TZM-bl",1.4 to 6.6 µM
same,IC90,"primary HIV-1 isolates; read-out: IC90, range over the tested subtypes of HIV-1, PD in cervical fluid, TZM-bl",1.8 to 7.5 µM
same,IC50,"primary HIV-1 isolates; several isolates of HIV-1 and SIV in TZM-bl cells, PD diluted in DMEM or cervical fluid",~1 µM
same,HCVcc virion lysis,HCVcc [2],Little to no virion lysis
same,attachment of PD-treated HCVcc to cells,HCVcc [3],binds to cells comparably to control DMSO-treated virus; also recorded: slight decrease in attachment
same,long-term stability,VSV-Gpp [4],not stable
same,effect on HIV-1 infection,"HIV-1 (R5 JR-CSF); 10 μM PD added 1, 2, 4 and 8 h after virus inoculation",loses its antiviral effect
same,effect on HIV-1 infection,HIV-1 (R5 JR-CSF); 10 μM PD added to cells before the virus,retains its full potency up to 8 h before the addition of the virus
same,effect on HIV-1 infection,HIV-1 (R5 JR-CSF); 10 μM PD added together with the virus (time zero),significantly inhibits HIV-1 infection
same,effect on HIV-1 infection,HIV-1 (R5 JR-CSF); extended (>16 h) preincubation of PD with cells prior to virus inoculation,significantly reduces the compound's antiviral efficacy
same,effect on Lactobacillus strains,"[5]; 300 μM PD, 37° C., 30 min",no adverse effect
same,CC50,[5]; vaginal commensal bacteria Lactobacilli,> 300 µM
same,antiviral activity lost,VSV-Gpp [6],no activity loss
same,stability,VSV-Gpp [6]; pH 4,highly stable
same,CC50,[7],> 300 µM
same,sedimentation of HIV-1 capsid and RT in sucrose gradient,[8],viral capsid and RT relocate to the top of the gradient
same,DC to T cell transmission of HIV-1,DC-associated HIV-1,prevents subsequent T cell infection with the pseudotyped virus
same,effect on HSV-2 infection,HSV-2 (333); MOI 1,partial protection
same,effect on HSV-2 infection,HSV-2 (333); MOI from 0.0001 to 0.1,inhibit both HSV-1 and HSV-2 infection
same,effect on HSV-1 infection,HSV-1 (Syn 17); MOI 1,partial protection
same,effect on HSV-1 infection,HSV-1 (Syn 17); MOI from 0.0001 to 0.1,inhibit both HSV-1 and HSV-2 infection
